In ChEMBL document CHEMBL1201862, “PubChem BioAssay data set” (2004):
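Where inhibition never reached the appropriate level, the endpoint shown equals the highest concentration tested. Otherwise, values were interpolated linearly from a five-concentration, 48-hour dose response in 96-well plates. GI50: concentration for 50% inhibition of growth.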 Activity calls are given as the source filed them. Cut-off read from the data, not from the text of the source: active = GI50 up to about 1.1 µM and inactive = higher.

Columns and labels:
Test in all cases: NCI tumour cell line growth inhibition, 48 h
[1] = system: MCF7
[2] = system: HCC 2998
[3] = system: SF-539
[4] = system: TK-10
[5] = system: SNB-78
[6] = system: M19-MEL
[7] = system: Malme-3M
[8] = system: NCI-H522
[9] = system: MDA-MB-231
[10] = system: UO-31
[11] = system: SK-MEL-5
[12] = system: RPMI-8226
[13] = system: SK-OV-3
[14] = system: SW-620
[15] = system: RXF 393
[16] = system: DMS-114
[17] = system: SN12C
[18] = system: CAKI-1
[19] = system: OVCAR-5
[20] = system: SK-MEL-28
[21] = system: A498
[22] = system: SF-268
[23] = system: SK-MEL-2
[24] = system: SR
[25] = system: UACC-62
[26] = system: HCT-116
[27] = system: K562
[28] = system: COLO 205
[29] = system: A549
[30] = system: MDA-MB-435
[31] = system: NCI/ADR-RES
[32] = system: MDA-N
[33] = system: BT-549
[34] = system: DMS-273
[35] = system: CCRF-CEM
[36] = system: XF498
[37] = system: KM12
[38] = system: PC-3
[39] = system: OVCAR-8
[40] = system: SF-295
[41] = system: HT-29
[42] = system: DU-145
[43] = system: OVCAR-3
[44] = system: HOP-92
[45] = system: Hs-578T
[46] = system: NCI-H23
[47] = system: KM-20L2
[48] = system: SNB-75
[49] = system: MOLT-4
[50] = system: NCI-H226
[51] = system: UACC-257
[52] = system: LOX IMVI
[53] = system: NCI-H460
[54] = system: U-251
[55] = system: ACHN
[56] = system: 786-0
[57] = system: DLD-1
[58] = system: EKVX
[59] = system: IGROV-1
[60] = system: HL-60
[61] = system: HCT-15
[62] = system: M14
[63] = system: SNB-19
[64] = system: T47D
[65] = system: OVCAR-4
[66] = system: HOP-62
[67] = system: LXFL 529
[68] = system: HOP-18
[69] = system: RXF 631

C[S+]([O-])c1cc(=O)c2ccccc2s1 (centres undefined)
GI50 [1]: 5.42 µM (inactive) | GI50 [2]: 7.64 µM (inactive) | GI50 [3]: 9.12 µM (inactive) | GI50 [4]: 6.68 µM (inactive) | GI50 [5]: 7.52 µM (inactive) | GI50 [6]: 6.03 µM (inactive) | GI50 [7]: 2.3 µM (inactive) | GI50 [8]: 1.13 µM (inactive) | GI50 [9]: 12.6 µM (inactive) | GI50 [10]: 11.9 µM (inactive) | GI50 [11]: 10.6 µM (inactive) | GI50 [12]: 2.9 µM (inactive) | GI50 [13]: 24.5 µM (inactive) | GI50 [14]: 1.91 µM (inactive) | GI50 [15]: 2.94 µM (inactive) | GI50 [16]: 4.2 µM (inactive) | GI50 [17]: 5.79 µM (inactive) | GI50 [18]: 3.09 µM (inactive) | GI50 [19]: 9.42 µM (inactive) | GI50 [20]: 4.2 µM (inactive) | GI50 [21]: 11.5 µM (inactive) | GI50 [22]: 10.2 µM (inactive) | GI50 [23]: 10.8 µM (inactive) | GI50 [24]: 1.56 µM (inactive) | GI50 [25]: 7.31 µM (inactive) | GI50 [26]: 2.55 µM (inactive) | GI50 [27]: 1.82 µM (inactive) | GI50 [28]: 2.32 µM (inactive) | GI50 [29]: 18.5 µM (inactive) | GI50 [30]: 5.14 µM (inactive) | GI50 [31]: 16.7 µM (inactive) | GI50 [32]: 3.05 µM (inactive) | GI50 [33]: 14.5 µM (inactive) | GI50 [34]: 8.67 µM (inactive) | GI50 [35]: 1.7 µM (inactive) | GI50 [36]: 4.1 µM (inactive) | GI50 [37]: 12.6 µM (inactive) | GI50 [38]: 15.5 µM (inactive) | GI50 [39]: 3.6 µM (inactive) | GI50 [40]: 17 µM (inactive) | GI50 [41]: 4.35 µM (inactive) | GI50 [42]: 18.7 µM (inactive) | GI50 [43]: 2.42 µM (inactive) | GI50 [44]: 2.94 µM (inactive) | GI50 [45]: 25.4 µM (inactive) | GI50 [46]: 6.19 µM (inactive) | GI50 [47]: 6.25 µM (inactive) | GI50 [48]: 11.4 µM (inactive) | GI50 [49]: 2.05 µM (inactive) | GI50 [50]: 16.9 µM (inactive) | GI50 [51]: 3.4 µM (inactive) | GI50 [52]: 3.78 µM (inactive) | GI50 [53]: 14.9 µM (inactive) | GI50 [54]: 12.8 µM (inactive) | GI50 [55]: 1.91 µM (inactive) | GI50 [56]: 2.82 µM (inactive) | GI50 [57]: 2.14 µM (inactive) | GI50 [58]: 5.71 µM (inactive) | GI50 [59]: 17.5 µM (inactive) | GI50 [60]: 1.99 µM (inactive) | GI50 [61]: 3.03 µM | GI50 [62]: 1.67 µM (inactive) | GI50 [63]: 18.4 µM (inactive) | GI50 [64]: 2.52 µM (inactive) | GI50 [65]: 3.03 µM (inactive) | GI50 [66]: 27 µM (inactive) | GI50 [67]: 1.54 µM (inactive) | GI50 [68]: 10.3 µM (inactive)

O=C1/C=C(/c2ccc(O)cc2)[C@@H](O)Cc2ccc(O)cc2O1
GI50 [3]: 52.5 µM (inactive) | GI50 [4]: > 100 µM (inactive) | GI50 [5]: 41.8 µM (inactive) | GI50 [6]: > 100 µM (inactive) | GI50 [7]: > 100 µM (inactive) | GI50 [8]: 54.8 µM (inactive) | GI50 [10]: 85.3 µM (inactive) | GI50 [11]: > 100 µM (inactive) | GI50 [13]: 35.7 µM (inactive) | GI50 [14]: > 100 µM (inactive) | GI50 [16]: 51.3 µM (inactive) | GI50 [17]: 85.9 µM (inactive) | GI50 [18]: 29.1 µM (inactive) | GI50 [19]: > 100 µM (inactive) | GI50 [21]: 2.25 µM (inactive) | GI50 [22]: 45.1 µM (inactive) | GI50 [23]: > 100 µM (inactive) | GI50 [24]: 56.1 µM (inactive) | GI50 [25]: 31 µM (inactive) | GI50 [26]: > 100 µM (inactive) | GI50 [28]: > 100 µM (inactive) | GI50 [29]: 56.1 µM (inactive) | GI50 [37]: 88.1 µM (inactive) | GI50 [39]: > 100 µM (inactive) | GI50 [40]: 93.1 µM (inactive) | GI50 [41]: > 100 µM (inactive) | GI50 [43]: > 100 µM (inactive) | GI50 [46]: > 100 µM (inactive) | GI50 [47]: > 100 µM (inactive) | GI50 [50]: 0.859 µM (active) | GI50 [51]: > 100 µM (inactive) | GI50 [52]: 92.3 µM (inactive) | GI50 [53]: 62.4 µM (inactive) | GI50 [54]: > 100 µM (inactive) | GI50 [55]: 92.7 µM (inactive) | GI50 [56]: > 100 µM (inactive) | GI50 [57]: > 100 µM (inactive) | GI50 [58]: > 100 µM (inactive) | GI50 [69]: 38.2 µM (inactive) | GI50 [59]: > 100 µM (inactive) | GI50 [61]: > 100 µM | GI50 [62]: > 100 µM (inactive) | GI50 [63]: 93.5 µM (inactive) | GI50 [65]: > 100 µM (inactive) | GI50 [66]: 61.4 µM (inactive) | GI50 [67]: 63.7 µM (inactive)
